Test results reported in publication PMC9814530, “Rapid de novo discovery of peptidomimetic affinity reagents for human angiotensin converting enzyme 2” (Communications Chemistry, 2022).
“Also recorded” adds a separate entry of the source. Where a SMILES comes first, the peptide text is derived from it. [ ]: non-standard residue; d: D form. Phe(3,4-F2) = N[C@@H](Cc1ccc(F)c(F)c1)C(=O)O; Ala(4-thiazolyl) = N[C@@H](Cc1cscn1)C(=O)O; Phe(4-NH2) = Nc1ccc(C[C@H](N)C(=O)O)cc1; Met(O2) = CS(=O)(=O)CC[C@H](N)C(=O)O; Ala(cPr) = N[C@@H](CC1CC1)C(=O)O; Cha = N[C@@H](CC1CCCCC1)C(=O)O; β3hS = N[C@@H](CO)CC(=O)O; Orn = NCCC[C@H](N)C(=O)O

Tests used:
[1] = target: T1, ACE2 (Homo sapiens, UniProt Q9BYF1); assay: Bio-layer interferometry (BLI) binding of immobilized biotinylated peptides to ACE2; details: 500 nM of ACE2
Protocol: (§1) Peptide binding validation was carried out using the ForteBio Octet RED96 system. The chamber temperature was kept constant at 30 °C with a plate agitation speed at 1000 rpm. Briefly, streptavidin (SA)-coated biosensor tips were dipped into 200 μL of 1.0–2.0 μM biotinylated peptide solution (in a kinetic buffer (K.B.): 1 × PBS with 0.1% BSA and 0.02% Tween-20) for peptides immobilization. Once loaded with peptides, the tips were then moved into solutions containing various concentrations (1000, 500, 250, 125, and 62.5 nM) of recombinant ACE2 protein (purchased from Sino Biological, Catalog number 10108-H08H) in the K.B. to obtain the association curve. After the 180 s association step, the tips were moved back into the K.B. to obtain the dissociation curve. Buffer-only and protein-only conditions (concentration at 1000 nM) were used as references for background subtraction. The association and dissociation curves were fitted with the ForteBio Biosystems Data Analysis Software under 5 experimental conditions (n = 5, global fitting algorithm, binding model 1:1) to calculate the apparent dissociation constant (KD).
Supplementary Note 4: Binding affinity measurements
4.1 BLI raw binding data of noncanonical peptides […]
affinity was reported using the kinetic fitting results ( KD is calculated by divide the […]
off rate by on rate). […] The ACE2
(§2) (1 picture or pasted object on this page, not shown here)
4.2 BLI raw binding data of canonical peptides
Supplementary Fig. 20. The BLI binding curve fitting (red lines) of ABP C1-C4 and ABP C7-C9 from Library 1 AS-MS against ACE2.
ACE2 concentration was 250 nM.

[2] = test system: 12ca5; assay: BLI binding to an unrelated (off-target) protein
Protocol: as §1, with “(KD). […]” for “(KD).”
4.4 The binding of ABP noncanonical peptides to an unrelated protein
N6, and N8 to an unrelated protein, 12ca5, measured by BLI at concentration
as §2

[3] = target: T1, ACE2; assay: ACE2 pulldown from human serum (SDS-PAGE); assay type: binding; details: biotinylated peptide on streptavidin magnetic beads, ACE2 in 5% normal human serum, 1.0 h 4 °C, 6 M urea elution
Protocol: After removing the supernatant and washing off the unbound fraction, the bound material was eluted with a high concentration of urea and analyzed using the sodium dodecyl sulfate–polyacrylamide gel electrophoresis (SDS-PAGE). […] Bound ACE2 was eluted for subsequent analysis. b The SDS-PAGE image with samples showing from left to right lanes: (1) molecular weight standard; (2) purified ACE2 protein (1.5 µg) as a loading control; (3) normal human serum as a control; (4) normal human serum mixed with ACE2 (1.5 µg); (5) elution of the bound fraction from the magnetic beads. NHS, Normal Human Serum (5%). Following a previous protocol, streptavidin-coated magnetic beads (100 µL, at 10 mg/mL) were pre-washed with blocking buffer (1 × PBS with 0.05% Tween-20, pH 7.4) and captured on a magnetic separation rack. The beads were then re-suspended in 1.0 mL of the same blocking buffer. […] After 30 min of incubation at 4 °C, the supernatant was removed and the beads were washed with 1 × PBS (3 × 1.0 mL) before incubation with the protein mixture. Soluble ACE2 (5 µL, 0.62 mg/mL) was mixed with 50 µL normal human serum in 1 × PBS (pH 7.4) to a final volume of 1.0 mL. The magnetic beads displaying immobilized ABP N1 were then added into the protein complex. […]

[4] = target: T1, ACE2; assay: ELISA detection of ACE2 coated from 1 x PBS; assay type: binding; details: ACE2 in 1 x PBS 10 pM-100 nM coated; biotinylated peptide 100 nM; streptavidin-HRP, TMB, A450
Protocol: (§3) However, we observed a decreased detection sensitivity presumably due to the decreased amount of ACE2 being immobilized on the plate with many other serum proteins present. […] The plate was incubated with ABP N1 or control peptide, followed by streptavidin-HRP and TMB substrate. Absorbance was measured at 450 nm. The experiment was performed in technical triplicates (n = 3). Each data point, the mean signal as a bar, and error bars from experimental standard deviation, and statistical significance calculated with the unpaired Student’s t-test are shown. A serial dilution of soluble ACE2 was coated onto an ELISA plate (96-well format) overnight at 4 °C. The next day, the plate was blocked with 5% BSA in 1 × PBS supplement with 0.05% Tween-20 (PBST, pH 7.4) for 2–3 h at room temperature. […] Control groups are biotinylated peptide ABP N8 and PBST alone. The supernatant was then removed, and the wells were washed with PBST (3× 200 µL). Streptavidin-HRP conjugate in PBST (0.25 µg/mL, 100 µL) was added to each well and incubated for 30 min at room temperature. The plate was PBST-washed again (3 × 200 µL) before color development with 100 µL 1-Step™ Ultra TMB-ELISA Substrate Solution (Thermo Fisher, Catalog number 34028). After 10 min, the reaction was quenched with 2.0 M sulfuric acid (100 µL). Finally, the absorbance at 450 nm was measured on a microplate reader (BioTek) for all treated wells. […]

[5] = target: T1, ACE2; assay: ELISA detection of ACE2 coated from a mixture with normal human serum; assay type: binding; details: plate coated with normal human serum and exogenous ACE2; biotinylated peptide 100 nM; streptavidin-HRP, TMB, A450
Protocol: as §3

[6] = target: T1, ACE2; assay: BLI binding competition of known ACE2 binders (AngII, MLN-4760) on the ABP-ACE2 interaction; parameters: Soluble ACE2 (5 µL, 0.62 mg/mL) was mixed with 50 µL normal human serum; details: immobilized biotinylated peptide

T1 sequence (Q9BYF1 18-740 limits assumed): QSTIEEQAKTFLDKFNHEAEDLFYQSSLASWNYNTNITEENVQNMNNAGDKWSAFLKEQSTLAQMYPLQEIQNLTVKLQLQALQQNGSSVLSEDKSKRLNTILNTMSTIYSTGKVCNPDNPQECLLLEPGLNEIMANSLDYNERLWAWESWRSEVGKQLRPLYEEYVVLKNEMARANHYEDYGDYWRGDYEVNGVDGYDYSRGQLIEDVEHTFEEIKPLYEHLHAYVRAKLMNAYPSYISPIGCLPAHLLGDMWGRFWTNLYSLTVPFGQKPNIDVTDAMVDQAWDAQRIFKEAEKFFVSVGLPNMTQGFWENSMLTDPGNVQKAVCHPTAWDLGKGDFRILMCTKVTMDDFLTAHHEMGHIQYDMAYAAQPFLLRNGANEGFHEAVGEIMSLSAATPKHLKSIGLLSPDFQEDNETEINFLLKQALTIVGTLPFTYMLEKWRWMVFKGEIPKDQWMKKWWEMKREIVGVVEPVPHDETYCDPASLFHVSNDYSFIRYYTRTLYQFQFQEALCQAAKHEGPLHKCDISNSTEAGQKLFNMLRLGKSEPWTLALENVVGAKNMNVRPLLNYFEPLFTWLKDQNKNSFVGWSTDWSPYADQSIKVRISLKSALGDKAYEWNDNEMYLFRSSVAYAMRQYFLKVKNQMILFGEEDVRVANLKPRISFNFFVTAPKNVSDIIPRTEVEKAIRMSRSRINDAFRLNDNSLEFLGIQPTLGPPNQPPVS

CS(=O)(=O)CC[C@H](NC(=O)[C@H](CC1CCCCC1)NC(=O)[C@H](Cc1cscn1)NC(=O)C[C@H](CO)NC(=O)[C@H](CCCN)NC(=O)[C@H](CCC(N)=O)NC(=O)[C@H](CCCN)NC(=O)[C@H](Cc1ccc(F)c(F)c1)NC(=O)[C@H](Cc1cscn1)NC(=O)[C@@H](N)CC1CC1)C(=O)NCC(=O)N[C@@H](Cc1ccc(N)cc1)C(=O)N[C@@H](CCCCN)C(N)=O [ABP N1] (H-[Ala(cPr)][Ala(4-thiazolyl)][Phe(3,4-F2)][Orn]Q[Orn][β3hS][Ala(4-thiazolyl)][Cha][Met(O2)]G[Phe(4-NH2)]K-NH2)
BLI response signal [1]: ~ 1.3 nm | higher signal for ACE2 than for 12ca5 ([2]; 500 nM ACE2 versus 500 nM 12ca5, BLI): ~ 5 fold | BLI response signal ([2]; 500 nM of the off-target protein (12ca5)): 0.25 nm | binding to unrelated protein 12ca5 (in words) ([2]; BLI, 12ca5 at 500 nM): minimal binding; also recorded: No apparent binding | pull-down of ACE2 from human serum [3]: selective enrichment of ACE2 protein | ELISA detection of ACE2 (in words) [4]: picomolar concentration of ACE2 was detected | ELISA detection of ACE2 in human serum (in words) [5]: dose-dependent ACE2 detection | inhibition of ABP binding to ACE2 by AngII ([6]; 500 nM ACE2 + 5 uM AngII (10-fold excess)): not inhibited | inhibition of ABP binding to ACE2 by MLN-4760 ([6]; 500 nM ACE2 + 5 uM MLN-4760 (10-fold excess)): partially inhibited
